The values below come from article PMC10936414 (mBio, 2024).

Data set [1] relates to VSV-SARS-CoV-2. In kind it is cell-based. Conditions: MA104, MOI of 3, 24 hpi.
The test system of data set [2] is VSV-SARS-CoV-2. Put plainly: organism not typed. In kind it is cell-based.
The test system of data set [3] is VSV. Put plainly: microbe, parasite or virus in culture. The data set is classed as cell-based.
In the next data set the test system is MA104 cells. The conditions noted are these: treated 25 h, WST-8. (In general: Tetrazolium dyes change colour on reduction, which living cells bring about.)
In data set [4] the test system is VSV. Conditions: ref [12]; cited from earlier work.
A further data set has as its system SARS-CoV-2-mNeonGreen. The experiment in a line: SARS-CoV-2-mNeonGreen infection of Vero E6 cells. The data set is classed as cell-based.
A further data set deals with SARS-CoV-2. The conditions noted are these: ref [4], [7]; cited from earlier work.
The test system of the next data set is SARS-CoV. Conditions: ref [6]; cited from earlier work.
For data set [5], the system named is VSV-SARS-CoV-2. Put plainly: organism not typed. In kind it is cell-based. This is another data set of the same source.
The nature of another data set: in vitro. Conditions: African green monkey.
[6] abbreviates: MA104, read-out: EC50 against VSV-SARS-CoV-2, MA104 cells, pre-treated 1 h, 24 h infection, MOI = 1, GFP signal.
Where [7] appears, read: Vesicular stomatitis virus, MA104, read-out: EC50 against VSV.
The mark [8] stands for this setting: MA104, read-out: EC50 against VSV-SARS-CoV-2 (Fig. S1), MA104 cells, treated 1 h prior, MOI of 0.5, 24 hpi.

Like-named read-outs stand apart in the source and are kept apart here. Residues, ends and D or L forms follow the SMILES beside them. *: point of attachment. Cbz = O=C(OCc1ccccc1)*

`Clc1ccc(N/N=C(\c2ccccc2)c2ccccn2)nc1` [JIB-04]: the percentage of inhibition in the data set with VSV-SARS-CoV-2 [1] (JIB-04 0.3 µM, NTZ 0 µM) is on record as 21%; with VSV-SARS-CoV-2 [1] (JIB-04 1 µM, NTZ 0 µM), 50%; in the data set on VSV-SARS-CoV-2 [1] (JIB-04 3 µM, NTZ 0 µM), 73%; in the data set with VSV-SARS-CoV-2 [1] (JIB-04 10 µM, NTZ 0 µM) it was 90%.

For orientation: EC50 means the concentration that produces a half-maximal response. Take `C[C@H]1CCC/C=C/[C@@H]2C[C@H](O)C[C@H]2[C@H](O)/C=C/C(=O)O1` [Brefeldin A, brefeldin A]: the EC50 in the data set with VSV-SARS-CoV-2 [2] (read-out: EC50 against VSV-SARS-CoV-2, MA104 cells, pre-treated 1 h, 24 h infection, MOI = 1, GFP signal) was under 2 µM.

Consider `O=C(O)/C=C/c1ccc(O)c(O)c1` [Caffeic Acid, caffeic acid], for which the EC50 with VSV-SARS-CoV-2 [2] (setting [6]) worked out at 4.66 µM; in the data set on VSV [3] (setting [7]) it was 6.7 µM.

Regarding `C/C=C/[C@H]1O[C@@](O)([C@@H](C)[C@H](O)[C@H](C)[C@H]2OC(=O)/C(OC)=C/C(C)=C/[C@@H](C)[C@@H](O)[C@@H](CC)[C@@H](O)[C@H](C)C/C(C)=C/C=C/[C@@H]2OC)C[C@@H](O[C@H]2C[C@@H](O)[C@H](OC(N)=O)[C@@H](C)O2)[C@@H]1C` [Concanamycin A, concanamycin A], the EC50 with VSV-SARS-CoV-2 [2] (setting [6]) is under 0.01 µM; in the data set on VSV [3] (setting [7]), 5.55 µM.

For `COc1ccc2cc1Oc1ccc(cc1)C[C@H]1c3cc(c(OC)cc3CCN1C)Oc1c(OC)c(OC)cc3c1[C@H](C2)N(C)CC3` [Tetrandrine, tetrandrine], the EC50 in the data set with VSV-SARS-CoV-2 [2] (setting [6]) stood at 1.23 µM; in the data set with VSV [3] (setting [7]), 23.2 µM.

As to `CCCCCCCCc1ccc(CCC(N)(CO)CO)cc1` [FTY720], the EC50 in the data set on VSV-SARS-CoV-2 [2] (setting [6]) stood at 5.17 µM; in the data set on VSV [3] (setting [7]), 16.5 µM.

In turn, `CCOC(=O)[C@H]1O[C@@H]1C(=O)N[C@@H](CC(C)C)C(=O)NCCC(C)C` [E-64d] registered a CC50 in the data set on MA104 cells of over 300 µM. For the same compound, in the data set with VSV [4], the “sensitivity of VSV to treatment (in words)” value was “not be sensitive to E-64d treatment”.

As for `CC(=O)Oc1ccccc1C(=O)Nc1ncc([N+](=O)[O-])s1` [Nitazoxanide, nitazoxanide], the “SI (selectivity index)” value in the data set on SARS-CoV-2-mNeonGreen (SARS-CoV-2-mNeonGreen, Vero E6 cells) is 167; with VSV-SARS-CoV-2 [2] (VSV-SARS-CoV-2, MA104 cells), 237. In addition, the EC50 in the data set with SARS-CoV-2-mNeonGreen (Severe acute respiratory syndrome coronavirus 2, Vero C1008, read-out: EC50 against SARS-CoV-2-mNeonGreen) came out at 4.9 µM; in the data set on VSV-SARS-CoV-2 [2] (setting [8]) it was 5.82 µM; in the data set on VSV-SARS-CoV-2 [2] (setting [6]), 10.5 µM; in the data set with VSV [3] (setting [7]), 16.3 µM. Also, the percentage of inhibition with VSV-SARS-CoV-2 [1] (JIB-04 0 µM, NTZ 1 µM) was 16%; with VSV-SARS-CoV-2 [1] (JIB-04 0 µM, NTZ 3 µM), 24%; with VSV-SARS-CoV-2 [1] (JIB-04 0 µM, NTZ 10 µM) it was 42%; in the data set on VSV-SARS-CoV-2 [1] (JIB-04 0 µM, NTZ 30 µM), 92%.

As for `CSCC[C@@H](C=O)NC(=O)[C@H](CC(C)C)NC(=O)[C@H](CC(C)C)NC(C)=O` [calpain inhibitor II] (Ac-Leu-Leu-Met-aldehyde), the “suppression of SARS-CoV-2 replication (in words)” value with SARS-CoV-2 was “suppressed SARS-CoV-2 replication”.

`CC(=O)N1CCN(c2ccc(OCC3COC(Cn4ccnc4)(c4ccc(Cl)cc4Cl)O3)cc2)CC1` (stereo not shown) [Ketoconazole, ketoconazole]: the EC50 with VSV-SARS-CoV-2 [2] (setting [6]) is 30.1 µM; with VSV [3] (setting [7]), over 100 µM.

Take `CC(C)C[C@@H](C=O)NC(=O)[C@H](CC(C)C)NC(=O)[C@H](CC(C)C)NC(=O)OCc1ccccc1` [MG132] (Cbz-Leu-Leu-Leu-aldehyde): the “SARS-CoV replication (in words)” value in the data set on SARS-CoV is listed as “impair SARS-CoV replication”. The EC50 in the data set on VSV-SARS-CoV-2 [2] (setting [6]) worked out at 0.64 µM. Also, the “selectivity in antiviral activities, VSV EC50 compared to VSV-SARS-CoV-2 EC50” value (shortened to “selectivity in antiviral activities”) with VSV-SARS-CoV-2 [2] (MA104 cells) is 100 fold.

`CC(C)Cn1c(=O)n(C)c(=O)c2[nH]cnc21` [IBMX, 3-isobutyl-1-methylxanthine]: the EC50 with VSV-SARS-CoV-2 [2] (setting [6]) and in the data set with VSV [3] (setting [7]) was under 2 µM each time.

In the case of `C/C=C(/C)C(=O)O[C@H]1C(C)=C2[C@H]([C@@H]1OC(=O)CCCCCCC)[C@@](C)(OC(C)=O)C[C@H](OC(=O)CCC)[C@@]1(O)[C@H]2OC(=O)[C@@]1(C)O` [Thapsigargin, thapsigargin], the EC50 with VSV-SARS-CoV-2 [2] (setting [6]) came out at 0.22 µM; with VSV [3] (setting [7]) it was 4.08 µM.

As for `CC(C)[C@H](NC(=O)OCc1ccccc1)C(=O)N[C@H](C=O)Cc1ccccc1` [calpain inhibitor III] (Cbz-Val-Phe-aldehyde), the “selectivity in antiviral activities” value in the data set with VSV-SARS-CoV-2 [2] (MA104 cells) is listed as “more than 30 fold”. Further, the EC50 in the data set with VSV-SARS-CoV-2 [2] (MA104 cells, pre-treated 1 h, 24 h infection, MOI = 1, GFP signal, read-out: EC50 against VSV-SARS-CoV-2) is 0.231 µM; with VSV-SARS-CoV-2 [5] (Vero E6 cells, pre-treated 1 h, 24 h infection, read-out: EC50 against VSV-SARS-CoV-2 in Vero E6 cells), under 0.5 µM; in the data set with VSV [3] (read-out: EC50 against VSV), 10.7 µM. Further, the CC50 in the data set on MA104 cells was over 300 µM.

`O=C(/C=C/c1ccc(O)c(O)c1)O[C@H](Cc1ccc(O)c(O)c1)C(=O)O` [rosmarinic acid] returned a CC50 in the data set “in vitro” of over 300 µM. For the same compound, the EC50 in the data set on VSV-SARS-CoV-2 [2] (setting [8]) is over 100 µM. The “inhibition of VSV-SARS-CoV-2 infection (in words)” value in the data set on VSV-SARS-CoV-2 [2] (MA104 cells) is listed as “did not inhibit VSV-SARS-CoV-2 infection”.

In the case of `CCCC[C@@H](C=O)NC(=O)[C@H](CC(C)C)NC(=O)OCc1ccccc1` [calpeptin], in the data set “in vitro”, the CC50 stood at 300 µM. The EC50 is 0.208 µM in the data set with VSV-SARS-CoV-2 [2] (setting [6]); under 0.5 µM in the data set with VSV-SARS-CoV-2 [5] (Vero C1008, read-out: EC50 against VSV-SARS-CoV-2 in Vero E6 cells, Vero E6 cells, pre-treated 1 h, 24 h infection); 7.43 µM in the data set with VSV [3] (setting [7]). Further, in the data set with VSV-SARS-CoV-2 [2] (MA104 cells), the “selectivity in antiviral activities” value is “more than 30 fold”. In the data set with SARS-CoV-2, the “suppression of SARS-CoV-2 replication (in words)” value is listed as “suppressed SARS-CoV-2 replication”.
